Assay results reported in patent US6521211B1, “Methods of imaging and treatment with targeted compositions” (Bristol-Myers Squibb Medical Imaging, Inc., priority 1995, dated 2003).

Test system: β-galactosidase gene (pSV β-gal)
Assay: in vivo delivery of genetic material in rats, X-gal staining, with or without ultrasound
Design: species or system Sprague Dawley rats
Conditions: mixed with plasmid pSV β-gal, tail vein, 48 hours
Description: Plasmid pSV β-gal (Promega, Madison, Wiss.), which contains the β-galactosidase gene, and the cationic lipid compound prepared in Example 3 were combined by mixing. The resulting mixture was injected into each of three Sprague Dawley rats (rats (A), (B) and (C)) via the tail vein. Rat (A) was not subjected to ultrasound. Ultrasonic energy was applied to the inside of the hind leg during injection for each of rats (B) and (C). After 48 hours, the rats were euthanized and the tissues were removed. The tissues were fixed for 72 hours in 2% formalin, sliced thin and placed in an X-gal solution. After 16 hours at 37° C., the tissues were inspected.

CCCCCCCCCCCCCCCCOC(=O)CN(CC[N+](C)(CC(=O)NCC[N+](C)(C)C)CC(=O)OCCCCCCCCCCCCCCCC)CC(=O)O (stereo not drawn) [Example 3, N,N′-bis (hexadecyloxycarbonylmethylene)-N-(β-N,N,N-trimethylammoniumethyl-aminocarbonylmethylene) -N-methyl-N′-(carboxymethylene)ethylenediamine diiodide]
X-gal staining of tissue (transfection) (rat (A), no ultrasound): blue color which is indicative of general transfection
X-gal staining of tissue (transfection) (rats (B) and (C), ultrasonic energy to inside of hind leg during injection): blue color only at the site where ultrasound energy was applied
